Assay [1] deals with lysates prepared from tissue fragments of carcinomatous and non-carcinomatous sites (pancreatic cancer resected specimens). Nature of the assay: Primary screening: increase in FI of probes mixed with lysates of carcinomatous and non-carcinomatous tissue. Format: biochemical, human. To be noted: lysates from five patients; probe 1.0 μM; 60 minutes, 37° C.; FIG. 1A. Here is the method:
First, according to the procedure described in Non Patent Literatures 6 to 8, each of lysates prepared from tissue fragments of carcinomatous and non-carcinomatous sites was mixed with a fluorescent probe, an increased value of fluorescence intensity was measured, and a fluorescent probe as a candidate was selected. Briefly, 5 μL of a lysate (protein concentration: 0.20 mg/dL) was added dropwise to a well of a black 384 plate in which 15 μL of a library of dipeptide-HMRG compounds (Non Patent Literature 8) was arranged. Final concentrations of the candidate probe and the lysate protein were 1.0 μM and 0.050 mg/dL, respectively.
The fluorescence intensity (FI) of each sample was measured at 0 minutes and 60 minutes after mixing with Envision Multilabel Plate Reader (PerkinElmer, Massachusetts, USA) while performing incubation at 37° C. Excitation and emission wavelengths were set to 485 nm and 535 nm, respectively. An increase in FI was defined as follows.
(Increase in FI)=(FI after 60 minutes)−(FI after 0 minutes)
Probes with the top 10% difference or ratio in the increase in FI in the carcinomatous and non-carcinomatous lysates were selected as candidate probes and evaluated as follows.

The test system of assay [2] is pancreatic cancer tissue in surgically resected specimen. Nature of the assay: Fluorescence imaging of cut surface of surgically resected pancreatic cancer specimens (TBR). The class given is cell-based, human. Here is the method:
Immediately after the pancreatic cancer specimen was extracted, the pancreatic cancer specimen was cut so as to include a maximum diameter of pancreatic cancer tissue. Next, the fluorescent probe described above (4 mL, 50 μM) was directly applied to the cut surface and fluorescence imaging was performed using Maestro in Vivo imaging system as described above. The accuracy of the fluorescence imaging was evaluated by a surgeon (RT) and a pathologist (MT) with reference to histopathological findings on the same plane. In addition, a tumor/background ratio (TBR) was also calculated by measuring the increase in average FI from 1 minute to 30 minutes after probe administration in carcinomatous and non-carcinomatous sites based on macroscopic/microscopic findings of the cut surface and corresponding fluorescence images.

Another assay addresses T1, Human recombinant DPP-IX (Homo sapiens, UniProt Q86TI2).
T1 construct: purchased abcam ab79621
Nature of the assay: Target enzyme search: change in FI of probe after adding DPP-IX. The class given is biochemical. The conditions noted are these: probe 1.0 μM; 2,000 seconds; ex/em 495 nm/525 nm; FIG. 5C. Here is the method: (§1) It was considered that dipeptidyl peptidase 4 (DPP-IV) or a similar enzyme was a target enzyme overexpressed in pancreatic cancer tissue. First, the candidate fluorescent probe was examined whether DPP-IV or the similar enzyme was activated. Human recombinant DPP-IV (50 μL; D 4943, Sigma-Aldrich), DPP-VIII (1.0 μg; ab162872, abcam), and DPP-IX (1.0 μg; ab79621, abcam) were injected into 3.0 mL of a probe solution (1.0 μM) using F-7000 (Hitachi (Tokyo)), and a change in FI during 2,000 seconds was measured. Excitation and emission wavelengths were set to 495 and 525 nm, respectively.

The next assay deals with T2, Human recombinant DPP-IV (Homo sapiens, UniProt P27487).
T2 construct: purchased Sigma-Aldrich D 4943
Nature of the assay: Target enzyme search: change in FI of probe after adding DPP-IV. The class given is biochemical. To be noted: probe 1.0 μM; 2,000 seconds; ex/em 495 nm/525 nm; FIG. 5A. The procedure:
as §1

SMILES strings stand for the structures. “And” between values parts separate entries of the source, which are not always exact repeats. Identical values can stand only once.

T1 sequence (Q86TI2 whole entry): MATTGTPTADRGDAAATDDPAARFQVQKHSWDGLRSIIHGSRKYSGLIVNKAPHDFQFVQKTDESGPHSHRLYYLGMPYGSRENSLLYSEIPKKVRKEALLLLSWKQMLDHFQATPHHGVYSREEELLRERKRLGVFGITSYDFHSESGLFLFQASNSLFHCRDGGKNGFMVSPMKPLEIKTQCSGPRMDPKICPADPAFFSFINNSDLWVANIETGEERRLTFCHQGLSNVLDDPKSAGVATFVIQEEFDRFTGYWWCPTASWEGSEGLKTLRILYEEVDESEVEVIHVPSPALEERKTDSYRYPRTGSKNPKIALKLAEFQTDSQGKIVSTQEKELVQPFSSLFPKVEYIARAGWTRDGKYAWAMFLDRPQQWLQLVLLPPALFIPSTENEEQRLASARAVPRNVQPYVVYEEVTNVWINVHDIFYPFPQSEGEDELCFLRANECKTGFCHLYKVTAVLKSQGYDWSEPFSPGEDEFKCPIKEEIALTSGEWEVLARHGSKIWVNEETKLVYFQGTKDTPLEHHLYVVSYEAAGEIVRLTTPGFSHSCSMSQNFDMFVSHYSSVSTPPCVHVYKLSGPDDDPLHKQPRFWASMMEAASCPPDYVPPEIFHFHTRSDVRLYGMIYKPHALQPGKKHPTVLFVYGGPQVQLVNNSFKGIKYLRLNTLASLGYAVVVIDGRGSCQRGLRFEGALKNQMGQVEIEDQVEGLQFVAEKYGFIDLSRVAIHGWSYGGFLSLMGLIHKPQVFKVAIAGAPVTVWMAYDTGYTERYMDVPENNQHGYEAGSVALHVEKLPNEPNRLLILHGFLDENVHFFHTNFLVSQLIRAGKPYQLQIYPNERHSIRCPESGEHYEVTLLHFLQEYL
T2 sequence (P27487 whole entry): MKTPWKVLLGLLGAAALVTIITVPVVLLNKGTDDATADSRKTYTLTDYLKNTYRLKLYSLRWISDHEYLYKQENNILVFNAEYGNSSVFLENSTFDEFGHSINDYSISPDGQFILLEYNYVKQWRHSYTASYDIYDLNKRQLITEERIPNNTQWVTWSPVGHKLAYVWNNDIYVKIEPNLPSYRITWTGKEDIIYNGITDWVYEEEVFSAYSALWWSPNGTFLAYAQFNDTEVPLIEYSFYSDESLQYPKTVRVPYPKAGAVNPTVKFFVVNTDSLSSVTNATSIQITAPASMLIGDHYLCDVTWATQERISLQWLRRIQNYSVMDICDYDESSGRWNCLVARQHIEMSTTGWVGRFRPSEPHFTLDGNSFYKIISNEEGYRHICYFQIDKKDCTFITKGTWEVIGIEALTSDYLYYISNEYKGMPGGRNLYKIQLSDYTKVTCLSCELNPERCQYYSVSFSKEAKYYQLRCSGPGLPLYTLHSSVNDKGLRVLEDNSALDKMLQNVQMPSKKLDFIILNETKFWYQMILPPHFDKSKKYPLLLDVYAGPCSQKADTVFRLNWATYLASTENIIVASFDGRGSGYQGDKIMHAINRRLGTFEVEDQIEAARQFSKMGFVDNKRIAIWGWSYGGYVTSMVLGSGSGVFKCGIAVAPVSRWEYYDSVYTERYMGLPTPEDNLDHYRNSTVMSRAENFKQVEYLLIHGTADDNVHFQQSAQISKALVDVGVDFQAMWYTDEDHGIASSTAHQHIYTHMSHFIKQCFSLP

On to `NCC(=O)N1CCC[C@H]1C(=O)Nc1ccc2c(c1)Oc1cc(N)ccc1C21OCc2ccccc21` (stereo partly drawn) [GP-HMRG], for which, in assay [1], the “increase in FI in carcinomatous tissue as opposed to non-carcinomatous tissue (lysates)” value (“increase … to non-carcinomatous tissue (lysates)” below) is recorded as “significant increase in FI in carcinomatous tissue”. Moreover, the “average TBR of the fluorescence images” value in assay [2] (30 minutes after spraying, eight patients) is listed as 1.96 (range, 1.31 to 2.04). Moreover, the “TBR in the connective tissue surrounding the splenic artery” value in assay [2] (Patient No. 8, after preoperative chemotherapy, cancer invasion) was 2.04. Also, the “TBR of the main tumor” value in assay [2] (Patient No. 8, after preoperative chemotherapy, fibrosis and mucinous changes, few viable cancer cells) was 1.13. Further, the “time from which increase in fluorescence signal in carcinomatous tissue was confirmed” value in assay [2] (after topical administration) was found to be 1 min. Moreover, in assay [2] (four of eight patients (Patient Nos. 1, 2, 4 and 5)), the “TBR in patients with uniform fluorescence signal of carcinomatous tissue” value was over 1.9. The “A TBR ratio of FI” value in assay [2] (one value per patient (Patients 1-8), cut surface, increase in average FI from 1 to 30 minutes, probe 4 mL, 50 μM) was 1.98 (2×) and 1.93 and 1.47 and 1.26 and 1.13 and 3.44 and 2.06. Further, the “conversion of probe into fluorescent HMRG in reaction with DPP-IX” value on Human recombinant DPP-IX was “converted into a highly fluorescent HMRG”. The “conversion of probe into fluorescent HMRG in reaction with DPP-IV” value at Human recombinant DPP-IV is reported as “converted into a highly fluorescent HMRG”.

On to `CC(C)C[C@H](N)C(=O)N1CCC[C@H]1C(=O)Nc1ccc2c(c1)Oc1cc(N)ccc1C21OCc2ccccc21` (stereo partly drawn) [LP-HMRG], for which, in assay [1], the “increase … to non-carcinomatous tissue (lysates)” value was “significant increase in FI in carcinomatous tissue”.

On to `Nc1ccc2c(c1)Oc1cc(NC(=O)[C@@H]3CCCN3C(=O)[C@@H]3CCCN3)ccc1C21OCc2ccccc21` (stereo partly drawn) [PP-HMRG], for which the “increase … to non-carcinomatous tissue (lysates)” value in assay [1] was “significant increase in FI in carcinomatous tissue”.

Consider `Nc1ccc2c(c1)Oc1cc(NC(=O)[C@@H]3CCCN3C(=O)[C@@H](N)Cc3ccc(O)cc3)ccc1C21OCc2ccccc21` (stereo partly drawn) [YP-HMRG], for which, in assay [1], the “increase … to non-carcinomatous tissue (lysates)” value was “significant increase in FI in carcinomatous tissue”.

(Values after US20240201189A1, “FLUORESCENT PROBE FOR USE IN DETECTION OF PANCREATIC CANCER” (The University of Tokyo, priority 2021, published 2024).)
